This passage reports IC50 results from patent publication US20230146675A1, “PYRIMIDO[5,4-d]PYRIMIDINE DERIVATIVES AS ENT INHIBITORS FOR THE TREATMENT OF CANCERS, AND COMBINATION THEREOF WITH ADENOSINE RECEPTOR ANTAGONISTS” (ITEOS BELGIUM SA, priority 2020, published 2023).

Each structure is given as a SMILES string.

One may read the IC50 as the point on the concentration scale where inhibition reaches its midpoint. Low readings indicate inhibition by little substance, high ones a need for much substance.

The target in this assay is T1, human ENT1 (Homo sapiens, UniProt Q99808).
T1 sequence (Q99808 1-456): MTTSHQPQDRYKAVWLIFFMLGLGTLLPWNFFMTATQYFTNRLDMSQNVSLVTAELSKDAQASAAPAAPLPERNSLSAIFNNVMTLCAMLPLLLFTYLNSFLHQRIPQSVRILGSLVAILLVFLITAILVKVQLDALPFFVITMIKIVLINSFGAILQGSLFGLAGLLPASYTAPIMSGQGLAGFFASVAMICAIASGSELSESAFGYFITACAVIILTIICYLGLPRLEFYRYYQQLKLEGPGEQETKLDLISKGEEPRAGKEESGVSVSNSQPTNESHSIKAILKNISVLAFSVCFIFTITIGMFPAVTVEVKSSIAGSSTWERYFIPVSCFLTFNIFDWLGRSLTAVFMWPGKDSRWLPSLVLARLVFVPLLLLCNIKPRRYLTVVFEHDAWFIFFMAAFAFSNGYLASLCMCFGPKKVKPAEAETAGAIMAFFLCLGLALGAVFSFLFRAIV
In words: ENT1 binding assay (competition with Sahenta-DY647 on JAR cells). More on the design: JAR cells expressing ENT1 were bought from ATCC; host or cells: JAR cells. As to conditions: binned IC50. In outline: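 JAR cells were incubated with test compounds and the fluorescent ligand Sahenta-DY647 in competition. Plates were washed twice by centrifugation (4 min, 400 rcf, 4 °C). Binding potency was derived from the final fluorescence.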
`COCCN(CCOC)c1nc(N2CCC(OC)CC2)c2nc(N(CCOC)CCOC)nc(NCC(C)(C)C)c2n1` [Compound 50, N2,N2,N6,N6-tetrakis(2-methoxyethyl)-8-(4-methoxypiperidin-1-yl)-N4-neopentylpyrimido[5,4-d]pyrimidine-2,4,6-triamine] registered an IC50 of 0.1 to 0.5 µM. For the molecule `COCCN(CCOC)c1nc(N2CCC(OC)CC2)c2nc(N(CCOC)CCOC)nc(NCc3nccs3)c2n1` [Compound 58, N2,N2,N6,N6-tetrakis(2-methoxyethyl)-8-(4-methoxypiperidin-1-yl)-N4-(thiazol-2-ylmethyl)pyrimido[5,4-d]pyrimidine-2,4,6-triamine], the IC50 lay in the range of 0.5 to 1 µM. In turn, `COCCN(CCOC)c1nc(N2CCN(C)C(=O)C2)c2nc(N3CCn4nncc4C3)nc(N3CCC(OC)CC3)c2n1` [Compound 288, 4-(2-(bis(2-methoxyethyl)amino)-6-(6,7-dihydro-[1,2,3]triazolo[1,5-a]pyrazin-5(4H)-yl)-8-(4-methoxypiperidin-1-yl)pyrimido[5,4-d]pyrimidin-4-yl)-1-methylpiperazin-2-one] displayed an IC50 of 0.1 to 0.5 µM.

`COCCN(Cc1cc(OC)c(OC)c(OC)c1)c1nc(N2CCN(C)C(=O)C2)c2nc(N(CCOC)CCOC)nc(N3CCC(OC)CC3)c2n1` [Compound 268, 4-(6-(bis(2-methoxyethyl)amino)-2-((2-methoxyethyl)(3,4,5-trimethoxybenzyl)amino)-8-(4-methoxypiperidin-1-yl)pyrimido[5,4-d]pyrimidin-4-yl)-1-methylpiperazin-2-one] displayed an IC50 of less than 0.1 µM.

`COCCN(CCOC)c1nc(N2CCC(C)(OC)CC2)c2nc(N(CCOC)CCOC)nc(N3CCC(C)(OC)CC3)c2n1` [Compound 201, 4,8-bis(4-methoxy-4-methylpiperidin-1-yl)-N2,N2,N6,N6-tetrakis(2-methoxyethyl)pyrimido[5,4-d]pyrimidine-2,6-diamine] yielded an IC50 of 0.1 to 0.5 µM. Molecule `COCCN(CCOC)c1nc(N2CCC(OC)CC2)c2nc(N(CCOC)CCOC)nc(N(C)Cc3ccccn3)c2n1` [Compound 73, N2,N2,N6,N6-tetrakis(2-methoxyethyl)-8-(4-methoxypiperidin-1-yl)-N4-methyl-N4-(pyridin-2-ylmethyl)pyrimido[5,4-d]pyrimidine-2,4,6-triamine] registered an IC50 of 0.1 to 0.5 µM. With `COCCCCNc1nc(N(CCOC)CCOC)nc2c(N3CCC(OC)CC3)nc(N(CCOC)CCOC)nc12` [Compound 181, N4-(4-methoxybutyl)-N2,N2,N6,N6-tetrakis(2-methoxyethyl)-8-(4-methoxypiperidin-1-yl)pyrimido[5,4-d]pyrimidine-2,4,6-triamine], the IC50 lay in the range of 0.5 to 1 µM.

Molecule `CCCNc1nc(N(CCOC)CCOC)nc2c(N3CCN(C)C(=O)C3)nc(N(CCOC)CCOC)nc12` [Compound 214, 4-(2,6-bis(bis(2-methoxyethyl)amino)-8-(propylamino)pyrimido[5,4-d]pyrimidin-4-yl)-1-methylpiperazin-2-one] returned an IC50 of 0.1 to 0.5 µM. Under `COCCCNc1nc(N(CCOC)CCOC)nc2c(N3CCC(OC)CC3)nc(N(CCOC)CCOC)nc12` [Compound 51, N2,N2,N6,N6-tetrakis(2-methoxyethyl)-8-(4-methoxypiperidin-1-yl)-N4-(3-methoxypropyl)pyrimido[5,4-d]pyrimidine-2,4,6-triamine] stands 0.5 to 1 µM; under `COCCN(CCOC)c1nc(N2CCN(c3nccs3)CC2)c2nc(N(CCOC)CCOC)nc(N3CCN(c4nccs4)CC3)c2n1` [Compound 1, N2,N2,N6,N6-tetrakis(2-methoxyethyl)-4,8-bis(4-(thiazol-2-yl)piperazin-1-yl)pyrimido[5,4-d]pyrimidine-2,6-diamine], less than 0.1 µM. Under `COCCN(CCOC)c1nc(N2CC(O)(C(F)(F)F)C2)c2nc(N(CCOC)CCOC)nc(N3CCC(OC)CC3)c2n1` [Compound 111, 1-(2,6-bis(bis(2-methoxyethyl)amino)-8-(4-methoxypiperidin-1-yl)pyrimido[5,4-d]pyrimidin-4-yl)-3-(trifluoromethyl)azetidin-3-ol] stands less than 0.1 µM; under `COCCN(CCOC)c1nc(N2CCn3ccnc3C2)c2nc(N(CCOC)CCOC)nc(N3CCN(C)C(=O)C3)c2n1` [Compound 257, 4-(2,6-bis(bis(2-methoxyethyl)amino)-8-(5,6-dihydroimidazo[1,2-a]pyrazin-7(8H)-yl)pyrimido[5,4-d]pyrimidin-4-yl)-1-methylpiperazin-2-one], less than 0.1 µM. For `COCCN(CCOC)c1nc(N2CCN(c3ncn(C)n3)CC2)c2nc(N(CCOC)CCOC)nc(N(C)Cc3cccc(C#N)c3)c2n1` [Compound 244, 3-(((2,6-bis(bis(2-methoxyethyl)amino)-8-(4-(1-methyl-1H-1,2,4-triazol-3-yl)piperazin-1-yl)pyrimido[5,4-d]pyrimidin-4-yl)(methyl)amino)methyl)benzonitrile], the IC50 is 0.1 to 0.5 µM.

`COCCN(CCOC)c1nc(N2CCc3nocc3C2)c2nc(N(CCOC)CCOC)nc(N3CCN(C)C(=O)C3)c2n1` [Compound 254, 4-(2,6-bis(bis(2-methoxyethyl)amino)-8-(6,7-dihydroisoxazolo[4,3-c]pyridin-5(4H)-yl)pyrimido[5,4-d]pyrimidin-4-yl)-1-methylpiperazin-2-one] displayed an IC50 of less than 0.1 µM.

The molecule `COCCN(CCOC)c1nc(N2CCC(OC)CC2)c2nc(N(CCOC)CCOC)nc(NCc3ccc(OC)cc3)c2n1` [Compound 47, N4-(4-methoxybenzyl)-N2,N2,N6,N6-tetrakis(2-methoxyethyl)-8-(4-methoxypiperidin-1-yl)pyrimido[5,4-d]pyrimidine-2,4,6-triamine] gave an IC50 of 0.1 to 0.5 µM. For `COCCN(CCOC)c1nc(N2CCC(OC)CC2)c2nc(N(CCOC)CCOC)nc(NCc3ccc(F)c(F)c3)c2n1` [Compound 139, N4-(3,4-difluorobenzyl)-N2,N2,N6,N6-tetrakis(2-methoxyethyl)-8-(4-methoxypiperidin-1-yl)pyrimido[5,4-d]pyrimidine-2,4,6-triamine], the IC50 was less than 0.1 µM.

Molecule `COCCN(CCOC)c1nc(N2CCC(OC)CC2)c2nc(N(CCOC)CCOC)nc(N3CCC(O)CC3)c2n1` [Compound 71, 1-(2,6-bis(bis(2-methoxyethyl)amino)-8-(4-methoxypiperidin-1-yl)pyrimido[5,4-d]pyrimidin-4-yl)piperidin-4-ol] gave an IC50 of 0.1 to 0.5 µM. Molecule `COCCN(CCOC)c1nc(N2CCC(OC)CC2)c2nc(N(CCOC)CCOC)nc(N3CCCCC3)c2n1` [Compound 318, N2,N2,N6,N6-tetrakis(2-methoxyethyl)-4-(4-methoxypiperidin-1-yl)-8-(piperidin-1-yl)pyrimido[5,4-d]pyrimidine-2,6-diamine] came in with an IC50 of 0.5 to 1 µM.

`COCCN(CCOC)c1nc(N2CCC(OC)CC2)c2nc(N3CCn4ccnc4C3)nc(N3CCN(C)C(=O)C3)c2n1` [Compound 295, 4-(6-(bis(2-methoxyethyl)amino)-2-(5,6-dihydroimidazo[1,2-a]pyrazin-7(8H)-yl)-8-(4-methoxypiperidin-1-yl)pyrimido[5,4-d]pyrimidin-4-yl)-1-methylpiperazin-2-one] yielded an IC50 of 0.1 to 0.5 µM. Under `COCCN(CCOC)c1nc(N2CCN(C)C(=O)C2)c2nc(N(CCOC)CCn3ccnc3)nc(N3CCC(OC)CC3)c2n1` [Compound 286, 4-(6-((2-(1H-imidazol-1-yl)ethyl)(2-methoxyethyl)amino)-2-(bis(2-methoxyethyl)amino)-8-(4-methoxypiperidin-1-yl)pyrimido[5,4-d]pyrimidin-4-yl)-1-methylpiperazin-2-one] stands 0.1 to 0.5 µM.
